“Also recorded” adds a separate entry of the source.
Experiments:
Tau-BIN1SH3 interaction = Tau-BIN1SH3 interaction (Homo sapiens (Human), UniProt P10636); assay: Tau-Flag PLA, Tau-BIN1SH3; assay type: cell-based; details: 15 μM, HEK-293 cells
Procedure: (§1) Tau-Flag PLA for Tau-SH3 interactions: To clone the SH3 constructs, a C-terminal Flag tag was added to the Tau construct using PCR, then the Tau sequence was replaced with the desired SH3 domain using In-Fusion HD cloning kit (Takara Bio). Next, an N-terminal GST tag was added to help expression using In-Fusion, resulting in GST-SH3-Flag plasmids. As a negative control, restriction enzymes were used to remove the FynSH3 from the FynSH3 construct, resulting in GST-Flag. All sequences were confirmed with Sanger sequencing, and expression in HEK-293 cells was verified by western blot and immunocytochemistry. Plating and experimental timeline was the same as above. Cells were transfected with 125 ng of Tau-mKate2 and 500 ng SH3 plasmid with 1.5 μL Fugene. compound no. 69 was applied to final concentration 15 μM. For Tau-SH3 PLA, we used Dako Tau (1:1000) and Flag (1:1000) primary antibodies.

97 kinases = assay: Eurofins DiscoverX ScanEDGE kinase panel; assay type: biochemical; details: compound no. 69 at 3 μM; saracatinib stock 30 μM = 1000× testing concentration; activity = <35% of control
From the text: (§2) 69 and compound no. […] Since Fyn was not included in that panel, a custom panel was completed for Fyn kinase activity.

primary neurons = assay: Multi-electrode array, Aβ-induced network hyperexcitability; assay type: cell-based, rat; details: one hour preincubation, 500 nM Aβ oligomers, four hours
From the text: Primary neuron cultures: All animal procedures were approved by the Institutional Animal Care and Use Committee at the University of Alabama at Birmingham (UAB). As before (Rush, et al. (2020) Neurobiol Dis 134, 104668; Voskobiynyk, et al. (2020) eLife 9, e57354), primary rat neurons were isolated from timed-pregnant Sprague-Dawley rats. Briefly, dams were euthanized with isoflurane anesthesia asphyxiation, and hippocampal tissue was isolated from E19 embryos in Hibernate E, then digested in papain for 10 minutes at 37° C. Neurons were triturated into a single cell suspension in Neurobasal supplemented with B-27, L-Glutamine, and 10% FBS, then plated in 96-well plates coated with PDL and laminin at 30,000 neurons per well in 200 uL medium or in 24-well coated plates with or without coverslips at 50,000 per well. Cultures were maintained at 37° C. with 5% CO2. […]
Multi-electrode arrays: As in a prior study (Voskobiynyk, et al. (2020) eLife 9, e57354), 30,000 neurons were plated per well in a 48-well MEA plate. […] 69 for one hour, then 500 nM Aβ oligomers was applied and neurons were returned to the incubator for four hours before being recorded for 20 more minutes. […] Mean baseline frequency for each well was calculated from unit frequencies, then each unit in the post-treatment recording was normalized to the baseline average of its well. […]

Tau-FynSH3 interaction = Tau-FynSH3 interaction (Homo sapiens (Human), UniProt P10636); assay: Tau-Flag PLA, Tau-FynSH3; assay type: cell-based
Tau-FynSH3 interaction, sequence (P10636 other isoform, or with tags, fused parts or gaps): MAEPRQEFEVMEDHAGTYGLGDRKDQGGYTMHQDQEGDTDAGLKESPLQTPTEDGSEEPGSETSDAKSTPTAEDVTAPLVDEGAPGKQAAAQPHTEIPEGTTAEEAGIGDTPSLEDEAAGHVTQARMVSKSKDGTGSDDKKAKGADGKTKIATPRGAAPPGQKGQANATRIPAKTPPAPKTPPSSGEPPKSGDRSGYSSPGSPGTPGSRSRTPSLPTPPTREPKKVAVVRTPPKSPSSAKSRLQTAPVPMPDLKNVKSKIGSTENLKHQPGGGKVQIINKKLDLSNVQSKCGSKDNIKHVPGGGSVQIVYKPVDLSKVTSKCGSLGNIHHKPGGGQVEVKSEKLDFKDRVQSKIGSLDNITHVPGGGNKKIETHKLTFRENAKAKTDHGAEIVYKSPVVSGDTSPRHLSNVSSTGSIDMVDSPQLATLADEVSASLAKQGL
Procedure: as §1

Tau, Fyn = assay: Western blot of Tau, Fyn and GAPDH levels in neurons; assay type: cell-based, rat; details: 15 μM, 24 hours
Procedure: Like before (Rush, et al. (2020) Neurobiol Dis 134, 104668), at DIV13, neurons were treated with 15 μM compound no. 69 or Vehicle. 24 hours later, cells were harvested in lysis buffer (50 mM Tris, 150 mM NaCl, 5 mM EDTA, 0.1% SDS, 0.1% Triton-X-100, and 0.5% sodium deoxycholate) and centrifuged to remove cellular debris. Samples were diluted in LDS and reducing agent and heated at 70° C. for 10 minutes. Samples were run on 4-12% bis-tris gels in MOPS buffer with 5 μg protein per well, determined by a Bradford assay, then transferred to a PDVF membrane. Membrane was blocked for 1 hour in 50% Odysey blocking buffer then probed overnight with Fyn3 (1:1000) antibody at 4° C. Membrane was washed 3× in TBST, then incubated for 1 hour at RT in IRDye 700 or 800 conjugated secondary and scanned on an Odyssey Scanner. Images were quantified in ImageJ. After probing for GAPDH (1:5,000), the blot was stripped with Restore PLUS Western Blot Sripping Buffer for 30 minutes at room temperature, washed in TBST, and probed for DAKO Tau (1:10,000).

[1] = test system: endogenous Tau-tubulin interaction; assay: Tau-Tubulin PLA in HEK-293 cells; assay type: cell-based, human; details: 15 μM, 24 hours, untransfected HEK-293 cells
Procedure: Tau-Tubulin PLA: Untransfected HEK-293 cells were used to measure endogenous Tau-tubulin interaction. Cells were grown for 48 hours before applying 15 µM compound no. 69 for 24 hours. Cells were fixed and PLA was run as above except with Dako Tau (1:1000) and α-tubulin (1:2000) primary antibodies.

Fyn kinase = Fyn kinase (Homo sapiens (Human), UniProt P06241); assay: Custom panel for Fyn kinase activity; assay type: biochemical; details: 3 μM
Fyn kinase, sequence (P06241 whole entry): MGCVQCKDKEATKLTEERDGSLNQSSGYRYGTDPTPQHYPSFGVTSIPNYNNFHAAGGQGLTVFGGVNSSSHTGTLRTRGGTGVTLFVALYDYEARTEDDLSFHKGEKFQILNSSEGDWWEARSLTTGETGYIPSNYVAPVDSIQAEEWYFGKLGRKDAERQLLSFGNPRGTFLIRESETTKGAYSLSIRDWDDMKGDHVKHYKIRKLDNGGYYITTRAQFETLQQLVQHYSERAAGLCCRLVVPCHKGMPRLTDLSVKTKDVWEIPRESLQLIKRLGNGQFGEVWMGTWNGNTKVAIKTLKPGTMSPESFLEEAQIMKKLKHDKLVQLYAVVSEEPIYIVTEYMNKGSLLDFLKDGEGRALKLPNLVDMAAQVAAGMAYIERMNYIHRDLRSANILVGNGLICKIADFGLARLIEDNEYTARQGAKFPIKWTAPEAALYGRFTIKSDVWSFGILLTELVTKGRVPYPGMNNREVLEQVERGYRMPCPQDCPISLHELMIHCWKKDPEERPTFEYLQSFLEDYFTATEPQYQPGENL
From the text: as §2

Tau-BIN1SH3 interaction, sequence (P10636 other isoform, or with tags, fused parts or gaps): as the sequence (P10636 other isoform, or with tags, fused parts or gaps) above

Structure (SMILES): O=C(CN1CCOc2ccccc21)Nc1nnc(-c2ccccn2)[nH]1 [compound no. 69]
- Tau-BIN1SH3 interaction, Tau-Flag PLA (Tau-BIN1SH3 interaction): moderately inhibited; also recorded: inhibits Tau-BIN1SH3 interaction
- kinase inhibition, panel of 97 kinases (97 kinases): did not inhibit Fyn or any of the 97 kinases; also recorded: is not a kinase inhibitor
- Aβ-induced network hyperexcitability, multi-electrode array (primary neurons): prevented Aβ-induced network8hyperexcitability at both 3 and 15 μM; also recorded: ameliorates Aβ-induced network hyperexcitability
- Tau-FynSH3 interaction, Tau-Flag PLA (in words) (Tau-FynSH3 interaction; 15 μM, HEK-293 cells): inhibited
- inhibition at 15 µM (Tau-FynSH3 interaction; HEK293, HEK-293 cells): 37%
- Tau, Fyn (and GAPDH) levels in primary neurons (Tau, Fyn): did not lower Tau or Fyn levels; also recorded: does not reduce Tau, Fyn, or GAPDH levels
- Tau-tubulin interaction, PLA [1]: did not inhibit Tau-tubulin binding; also recorded: does not inhibit Tau-tubulin interaction
- Fyn kinase inhibition (Fyn kinase): did not inhibit Fyn
